Patent US20150005288A1, “SUBSTITUTED PHENYLIMIDAZOPYRAZOLES AND USE THEREOF” (Bayer Intellectual Property GmbH, priority 2012, published 2015)

Target: T1, intracellular domain of human Tie2 (GST fusion protein) (Homo sapiens, UniProt Q02763)
T1 construct: intracellular domain of human Tie2 (amino acids 776-1124); made in house; host or cells: Baculovirus-infected insect cells (Hi5)
Experiment: Tie2 kinase assay (Tie2-TR-FRET)
Format: biochemical
Settings: ATP concentration 1 mM, in some cases means of several independent determinations
Procedure: The Tie2-inhibitory activity of the substances according to the invention was determined with the aid of one of the Tie2-TR-FRET assays described in the sections below at an ATP concentration of 1 mM (TR-FRET=Time-Resolved Fluorescence Resonance Energy Transfer):
The enzyme used was a recombinant fusion protein of glutathione S-transferase (GST) and the intracellular domain of human Tie2 (amino acids 776-1124) which was expressed in Baculovirus-infected insect cells (Hi5) and was purified by affinity chromatography on glutathione-Sepharose. Alternatively, it is also possible to use commercially available GST-His6-Tie2 fusion protein (ProQinase GmbH, Freiburg im Breisgau, Germany). The substrate used for the kinase reaction was the biotinylated peptide biotin-Ahx-[…] (C-terminus in amide form) which is commercially available (for example from Biosyntan, Berlin, Germany).
For the assay, 50 nl of a 100-fold concentrated solution of the respective test substance in DMSO were pipetted into a black low-volume 384-well microtitre plate (Greiner Bio-One, Frickenhausen, Germany) 2 μl of a solution of the Tie2 fusion protein in assay buffer [50 mM HEPES/HCl pH 7, 10 mM MgCl2, 2.5 mM MnCl2, 1 mM dithiothreitol, 0.01% (v/v) Nonidet P-40, 0.1% (w/v) bovine serum albumin (BSA), 1× Complete EDTA-free protease inhibitor mixture (Roche)] were added, and the mixture was incubated for 15 min to allow pre-binding of the substance to the enzyme prior to the kinase reaction. The kinase reaction was then started by adding 3 μl of a solution of adenosine triphosphate (ATP, 1.67 mM→final concentration in 5 μl assay volume=1 mM) and substrate (1.67 μM→final concentration in 5 μl assay volume=1 μM) in assay buffer, and the resulting mixture was incubated for a reaction time of 60 min at 22° C. The concentration of the Tie2 fusion protein was adapted to the respective activity of the enzyme and adjusted such that the assay was carried out in the linear range. Typical concentrations were in the range of 30 ng/ml.
The reaction was stopped by addition of 5 μl of a solution of TR-FRET detection reagents [200 nM streptavidin-XL665 and 2 nM PT66-Eu chelate, a europium chelate-labelled anti-phosphotyrosine antibody (Perkin-Elmer); alternatively, it is also possible to use PT66-Tb cryptate (Cisbio Bioassays, Codolet, France)] in aqueous EDTA solution[90 mM EDTA, 0.28% (w/v) bovine serum albumin (BSA) in 50 mM HEPES pH 7.5]. The resulting mixture was incubated at 22° C. for 1 h to allow formation of the complex of the biotinylated phosphorylated substrate and the detection reagents. The amount of phosphorylated substrate was then determined by measuring the resonance energy transfer from PT66-Eu chelate to streptavidin-XL665. To this end, the fluorescence emissions at 620 nm and 665 nm after excitation at 350 nm were measured in a TR-FRET measuring instrument (for example Viewlux, Perkin-Elmer). The ratio of the emissions at 665 nm and at 620 nm was taken as a measure of the amount of phosphorylated substrate.
Usually, the test substance in question was tested on the same microtitre plate at […] different concentrations in the range from 20 μM to 0.073 nM (for example at 20 μM, 5.7 μM, 1.6 μM, 0.47 μM, 0.13 μM, 38 nM, 11 nM, 3.1 nM, 0.89 nM, 0.25 nM and 0.073 nM) in duplicate for each concentration. The dilution series were prepared prior to the assay at the stage of the 100-fold concentrated solution by serial dilution (the exact concentrations may vary depending on the pipettors used in each case). IC50 values were calculated using a 4-parameter fit, with the aid of inhouse software.
Table 1 below lists the IC50 values from this assay for individual working examples (in some cases as means of several independent individual determinations): […]

T1 sequence (Q02763 776-1124): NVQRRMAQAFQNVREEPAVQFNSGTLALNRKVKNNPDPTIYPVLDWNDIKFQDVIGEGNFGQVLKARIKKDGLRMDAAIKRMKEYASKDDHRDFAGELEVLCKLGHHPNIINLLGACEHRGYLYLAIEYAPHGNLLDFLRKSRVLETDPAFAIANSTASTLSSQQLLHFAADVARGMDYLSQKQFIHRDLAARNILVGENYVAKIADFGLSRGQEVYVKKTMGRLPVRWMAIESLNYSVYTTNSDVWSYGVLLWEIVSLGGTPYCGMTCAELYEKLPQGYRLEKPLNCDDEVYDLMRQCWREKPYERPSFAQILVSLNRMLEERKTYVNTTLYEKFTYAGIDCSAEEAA

| Compound | IC50 [nM] |
| --- | --- |
| Cc1ccc(NC(=O)c2cc(O)cc(S(F)(F)(F)(F)F)c2)cc1-n1ccn2nc(-c3cccnc3)cc12 [Example 20, 3-Hydroxy-N-{4-methyl-3-[6-(pyridin-3-yl)-1H-imidazo[1,2-b]pyrazol-1-yl]phenyl}-5-(pentafluoro-λ^6-sulphanyl)benzamide] | 3.1 |
| COc1cc(C(=O)Nc2ccc(C)c(-n3ccn4nc(-c5cccnc5)cc34)c2)cc(S(F)(F)(F)(F)F)c1 [Example 21, 3-Methoxy-N-{4-methyl-3-[6-(pyridin-3-yl)-1H-imidazo[1,2-b]pyrazol-1-yl]phenyl}-5-(pentafluoro-λ^6-sulphanyl)benzamide] | 2.1 |
| Cc1ccc(NC(=O)c2cc(OCCN)cc(S(F)(F)(F)(F)F)c2)cc1-n1ccn2nc(-c3cccnc3)cc12 [Example 22, 3-(2-Aminoethoxy)-N-{4-methyl-3-[6-(pyridin-3-yl)-1H-imidazo[1,2-b]pyrazol-1-yl]phenyl}-5-(pentafluoro-λ^6-sulphanyl)benzamide] | 0.6 |
| Cc1ccc(NC(=O)c2cc(OCCCN)cc(S(F)(F)(F)(F)F)c2)cc1-n1ccn2nc(-c3cccnc3)cc12 [Example 23, 3-(3-Aminopropoxy)-N-{4-methyl-3-[6-(pyridin-3-yl)-1H-imidazo[1,2-b]pyrazol-1-yl]phenyl}-5-(pentafluoro-λ^6-sulphanyl)benzamide] | 0.3 |
| Cc1ccc(NC(=O)c2cc(OC3CNC3)cc(S(F)(F)(F)(F)F)c2)cc1-n1ccn2nc(-c3cccnc3)cc12 [Example 24, 3-(Azetidin-3-yloxy)-N-{4-methyl-3-[6-(pyridin-3-yl)-1H-imidazo[1,2-b]pyrazol-1-yl]phenyl}-5-(pentafluoro-λ^6-sulphanyl)benzamide] | 0.8 |
| Cc1ccc(NC(=O)c2cc(OC3CCNC3)cc(S(F)(F)(F)(F)F)c2)cc1-n1ccn2nc(-c3cccnc3)cc12 (stereo not shown) [Example 25, N-{4-Methyl-3-[6-(pyridin-3-yl)-1H-imidazo[1,2-b]pyrazol-1-yl]phenyl}-3-(pentafluoro-λ^6-sulphanyl)-5-(pyrrolidin-3-yloxy)benzamide] | 1.9 |
| Cc1ccc(NC(=O)c2cc(Cl)cc(S(F)(F)(F)(F)F)c2)cc1-n1ccn2nc(-c3cccnc3)cc12 [Example 27, 3-Chloro-N-{4-methyl-3-[6-(pyridin-3-yl)-1H-imidazo[1,2-b]pyrazol-1-yl]phenyl}-5-(pentafluoro-λ^6-sulphanyl)benzamide] | 3.1 |
| Cc1ccc(NC(=O)c2cc(C(N)=O)cc(S(F)(F)(F)(F)F)c2)cc1-n1ccn2nc(-c3cccnc3)cc12 [Example 29, N-{4-Methyl-3-[6-(pyridin-3-yl)-1H-imidazo[1,2-b]pyrazol-1-yl]phenyl}-5-(pentafluoro-λ^6-sulphanyl)isophthalamide] | 2 |
| Cc1cc(C(=O)Nc2ccc(C)c(-n3ccn4nc(-c5cccnc5)cc34)c2)cc(S(F)(F)(F)(F)F)c1 [Example 30, 3-Methyl-N-{4-methyl-3-[6-(pyridin-3-yl)-1H-imidazo[1,2-b]pyrazol-1-yl]phenyl}-5-(pentafluoro-λ^6-sulphanyl)benzamide] | 2 |
| Cc1ccc(NC(=O)c2cc(CO)cc(S(F)(F)(F)(F)F)c2)cc1-n1ccn2nc(-c3cccnc3)cc12 [Example 31, 3-(Hydroxymethyl)-N-{4-methyl-3-[6-(pyridin-3-yl)-1H-imidazo[1,2-b]pyrazol-1-yl]phenyl}-5-(pentafluoro-λ^6-sulphanyl)benzamide] | 1.1 |
| Cc1ccc(NC(=O)c2cc(CN3CCCC3)cc(S(F)(F)(F)(F)F)c2)cc1-n1ccn2nc(-c3cccnc3)cc12 [Example 33, N-{4-Methyl-3-[6-(pyridin-3-yl)-1H-imidazo[1,2-b]pyrazol-1-yl]phenyl}-3-(pentafluoro-λ^6-sulphanyl)-5-(pyrrolidin-1-ylmethyl)benzamide] | 2.5 |
| Cc1ccc(NC(=O)c2cc(CN3CC[C@H](O)C3)cc(S(F)(F)(F)(F)F)c2)cc1-n1ccn2nc(-c3cccnc3)cc12 [Example 34, 3-{[(3S)-3-Hydroxypyrrolidin-1-yl]methyl}-N-{4-methyl-3-[6-(pyridin-3-yl)-1H-imidazo[1,2-b]-pyrazol-1-yl]phenyl}-5-(pentafluoro-λ^6-sulphanyl)benzamide] | 2.1 |
| Cc1ccc(NC(=O)c2cc(CN3CCNCC3)cc(S(F)(F)(F)(F)F)c2)cc1-n1ccn2nc(-c3cccnc3)cc12 [Example 35, N-{4-Methyl-3-[6-(pyridin-3-yl)-1H-imidazo[1,2-b]pyrazol-1-yl]phenyl}-3-(pentafluoro-λ^6-sulphanyl)-5-(piperazin-1-ylmethyl)benzamide] | 0.5 |
| Cc1ccc(NC(=O)c2cc(CN3CCN(C)CC3)cc(S(F)(F)(F)(F)F)c2)cc1-n1ccn2nc(-c3cccnc3)cc12 [Example 36, 3-[(4-Methylpiperazin-1-yl)methyl]-N-{4-methyl-3-[6-(pyridin-3-yl)-1H-imidazo[1,2-b]pyrazol-1-yl]phenyl}-5-(pentafluoro-λ^6-sulphanyl)benzamide] | 0.3 |
| Cc1ccc(NC(=O)c2cc(C3(O)CNC3)cc(S(F)(F)(F)(F)F)c2)cc1-n1ccn2nc(-c3cccnc3)cc12 [Example 37, 3-(3-Hydroxyazetidin-3-yl)-N-{4-methyl-3-[6-(pyridin-3-yl)-1H-imidazo[1,2-b]pyrazol-1-yl]-phenyl}-5-(pentafluoro-λ^6-sulphanyl)benzamide bis(trifluoroacetate)] | 0.4 |
| Cc1ccc(NC(=O)c2cc(C#N)cc(OC(F)(F)F)c2)cc1-n1ccn2nc(-c3cccnc3)cc12 [Example 38, 3-Cyano-N-{4-methyl-3-[6-(pyridin-3-yl)-1H-imidazo[1,2-b]pyrazol-1-yl]phenyl}-5-(trifluoromethoxy)benzamide] | 15 |
| Cc1ccc(NC(=O)c2cccc(C(F)(F)F)c2)cc1-n1ccn2nc(-c3cccnc3)cc12 [Example 39, N-{4-Methyl-3-[6-(pyridin-3-yl)-1H-imidazo[1,2-b]pyrazol-1-yl]phenyl}-3-(trifluoromethyl)-benzamide] | 320 |
| Cc1ccc(NC(=O)c2cc(N3CCN(C)CC3)cc(C(F)(F)F)c2)cc1-n1ccn2nc(-c3cccnc3)cc12 [Example 41, 3-(4-Methylpiperazin-1-yl)-N-{4-methyl-3-[6-(pyridin-3-yl)-1H-imidazo[1,2-b]pyrazol-1-yl]-phenyl}-5-(trifluoromethyl)benzamide] | 35 |
| Cc1ccc(NC(=O)c2cc(N(C)CCCN(C)C)cc(C(F)(F)F)c2)cc1-n1ccn2nc(-c3cccnc3)cc12 [Example 42, 3-{[3-(Dimethylamino)propyl](methyl)amino}-N-{4-methyl-3-[6-(pyridin-3-yl)-1H-imidazo-[1,2-b]pyrazol-1-yl]phenyl}-5-(trifluoromethyl)benzamide] | 1.5 |
| Cc1ccc(NC(=O)c2cc(C(F)(F)F)cc(C(F)(F)F)c2)cc1-n1ccn2nc(-c3cccnc3)cc12 [Example 43, N-{4-Methyl-3-[6-(pyridin-3-yl)-1H-imidazo[1,2-b]pyrazol-1-yl]phenyl}-3,5-bis(trifluoromethyl)-benzamide] | 56 |
| Cc1ccc(NC(=O)c2cc(C#N)cc(C(F)(F)F)c2)cc1-n1ccn2nc(-c3cccnc3)cc12 [Example 44, 3-Cyano-N-{4-methyl-3-[6-(pyridin-3-yl)-1H-imidazo[1,2-b]pyrazol-1-yl]phenyl}-5-(trifluoromethyl)benzamide] | 130 |
| Cc1ccc(NC(=O)c2ccc(F)c(C(F)(F)F)c2)cc1-n1ccn2nc(-c3cccnc3)cc12 [Example 45, 4-Fluoro-N-{4-methyl-3-[6-(pyridin-3-yl)-1H-imidazo[1,2-b]pyrazol-1-yl]phenyl}-3-(trifluoromethyl)benzamide] | 740 |
